{"source": "PubChem BioAssay AID248", "about": "(DTP/NCI, 2004)", "tested_on": "L1210 leukemia ip in BDF1 mice, survival T/C", "assay": "NCI In Vivo Anticancer Drug Screen. Data for tumor model L1210 Leukemia (intraperitoneal) in B6D2F1 (BDF1) mice", "conditions": "endpoint: mean survival time, higher = longer survival", "method_in_brief": "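Survival endpoint. Drug-treated group vs vehicle group, expressed as T divided by C. Tumor passaged by transplantation.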", "note": "“And” between values parts separate entries of the source, which are not always exact repeats. Equal entries are not always repeated. Inconclusive results and toxic doses are left out."}
{"smiles": "CC(=O)OCC1OC(n2ccc(N)nc2=O)C(OC(C)=O)C1OC(C)=O", "note": "(stereo unspecified)", "values": [{"measurement": "T/C", "setting": "dose: 6.3 mg/kg/injection, schedule: Q01DX015 (oral), vehicle: carboxymethylcellulose (CMC)", "value": "117 % of control"}, {"measurement": "T/C", "setting": "dose: 6.6 mg/kg/injection, schedule: Q03HX024 (ip), vehicle: carboxymethylcellulose (CMC)", "value": "156 % of control"}, {"measurement": "T/C", "setting": "dose: 10.0 mg/kg/injection, schedule: Q01DX015 (ip), vehicle: saline", "value": "101 % of control"}, {"measurement": "T/C", "setting": "dose: 11.0 mg/kg/injection, schedule: Q03HX008 (ip), vehicle: carboxymethylcellulose (CMC)", "value": "121 % of control"}, {"measurement": "T/C", "setting": "dose: 11.0 mg/kg/injection, schedule: Q03HX024 (ip), vehicle: carboxymethylcellulose (CMC)", "value": "184 % of control"}, {"measurement": "T/C", "setting": "dose: 12.5 mg/kg/injection, schedule: Q01DX015 (oral), vehicle: carboxymethylcellulose (CMC)", "value": "116 % of control"}, {"measurement": "T/C", "setting": "dose: 15.0 mg/kg/injection, schedule: Q01DX015 (ip), vehicle: saline", "value": "117 % of control"}, {"measurement": "T/C", "setting": "dose: 18.0 mg/kg/injection, schedule: Q03HX024 (ip), vehicle: carboxymethylcellulose (CMC)", "value": "207 % of control"}, {"measurement": "T/C", "setting": "dose: 23.0 mg/kg/injection, schedule: Q01DX015 (ip), vehicle: saline", "value": "124 % of control"}, {"measurement": "T/C", "setting": "dose: 25.0 mg/kg/injection, schedule: Q01DX015 (oral), vehicle: carboxymethylcellulose (CMC)", "value": "122 % of control"}, {"measurement": "T/C", "setting": "dose: 30.0 mg/kg/injection, schedule: Q03HX024 (ip), vehicle: carboxymethylcellulose (CMC)", "value": "246 % of control"}, {"measurement": "T/C", "setting": "dose: 35.0 mg/kg/injection, schedule: Q01DX015 (ip), vehicle: saline", "value": "150 % of control and 168 % of control"}, {"measurement": "T/C", "setting": "dose: 37.0 mg/kg/injection, schedule: Q01DX009 (oral), vehicle: water", "value": "123 % of control"}, {"measurement": "T/C", "setting": "dose: 37.0 mg/kg/injection, schedule: Q## X024 (oral), vehicle: water", "value": "100 % of control"}, {"measurement": "T/C", "setting": "dose: 50.0 mg/kg/injection, schedule: Q01DX009 (ip), vehicle: saline", "value": "153 % of control"}, {"measurement": "T/C", "setting": "dose: 50.0 mg/kg/injection, schedule: Q01DX009 (ip), vehicle: water", "value": "171 % of control"}, {"measurement": "T/C", "setting": "dose: 50.0 mg/kg/injection, schedule: Q01DX009 (sc), vehicle: water", "value": "158 % of control"}, {"measurement": "T/C", "setting": "dose: 51.0 mg/kg/injection, schedule: Q01DX009 (ip), vehicle: carboxymethylcellulose (CMC)", "value": "180 % of control"}, {"measurement": "T/C", "setting": "dose: 51.0 mg/kg/injection, schedule: Q03HX008 (ip), vehicle: carboxymethylcellulose (CMC)", "value": "157 % of control"}, {"measurement": "T/C", "setting": "dose: 55.0 mg/kg/injection, schedule: Q01DX015 (ip), vehicle: saline", "value": "201 % of control"}, {"measurement": "T/C", "setting": "dose: 75.0 mg/kg/injection, schedule: Q01DX005 (oral), vehicle: water", "value": "121 % of control"}, {"measurement": "T/C", "setting": "dose: 75.0 mg/kg/injection, schedule: Q01DX009 (oral), vehicle: water", "value": "117 % of control"}, {"measurement": "T/C", "setting": "dose: 86.0 mg/kg/injection, schedule: Q01DX009 (ip), vehicle: carboxymethylcellulose (CMC)", "value": "213 % of control"}, {"measurement": "T/C", "setting": "dose: 100.0 mg/kg/injection, schedule: Q01DX005 (ip), vehicle: saline", "value": "154 % of control and 164 % of control"}, {"measurement": "T/C", "setting": "dose: 100.0 mg/kg/injection, schedule: Q01DX009 (ip), vehicle: saline", "value": "222 % of control"}, {"measurement": "T/C", "setting": "dose: 100.0 mg/kg/injection, schedule: Q01DX009 (ip), vehicle: water", "value": "235 % of control"}, {"measurement": "T/C", "setting": "dose: 100.0 mg/kg/injection, schedule: Q01DX009 (sc), vehicle: water", "value": "205 % of control"}, {"measurement": "T/C", "setting": "dose: 100.0 mg/kg/injection, schedule: Q01DX011 (oral), vehicle: water", "value": "156 % of control and 175 % of control"}, {"measurement": "T/C", "setting": "dose: 125.0 mg/kg/injection, schedule: Q01DX015 (ip), vehicle: saline", "value": "314 % of control"}, {"measurement": "T/C", "setting": "dose: 150.0 mg/kg/injection, schedule: Q01DX001 (ip), vehicle: water", "value": "114 % of control"}, {"measurement": "T/C", "setting": "dose: 150.0 mg/kg/injection, schedule: Q01DX001 (sc), vehicle: water", "value": "150 % of control"}, {"measurement": "T/C", "setting": "dose: 150.0 mg/kg/injection, schedule: Q01DX005 (oral), vehicle: water", "value": "112 % of control"}, {"measurement": "T/C", "setting": "dose: 150.0 mg/kg/injection, schedule: Q## X003 (oral), vehicle: water", "value": "120 % of control"}, {"measurement": "T/C", "setting": "dose: 150.0 mg/kg/injection, schedule: Q## X024 (oral), vehicle: water", "value": "104 % of control and 113 % of control"}, {"measurement": "T/C", "setting": "dose: 200.0 mg/kg/injection, schedule: Q01DX005 (ip), vehicle: saline", "value": "190 % of control and 198 % of control"}, {"measurement": "T/C", "setting": "dose: 200.0 mg/kg/injection, schedule: Q01DX009 (ip), vehicle: saline", "value": "109 % of control"}, {"measurement": "T/C", "setting": "dose: 200.0 mg/kg/injection, schedule: Q01DX009 (ip), vehicle: water", "value": "88 % of control"}, {"measurement": "T/C", "setting": "dose: 200.0 mg/kg/injection, schedule: Q01DX009 (sc), vehicle: water", "value": "95 % of control"}, {"measurement": "T/C", "setting": "dose: 200.0 mg/kg/injection, schedule: Q01DX011 (oral), vehicle: water", "value": "201 % of control"}, {"measurement": "T/C", "setting": "dose: 250.0 mg/kg/injection, schedule: Q01DX001 (ip), vehicle: saline", "value": "116 % of control"}, {"measurement": "T/C", "setting": "dose: 250.0 mg/kg/injection, schedule: Q01DX015 (ip), vehicle: saline", "value": "86 % of control"}, {"measurement": "T/C", "setting": "dose: 300.0 mg/kg/injection, schedule: Q01DX001 (ip), vehicle: water", "value": "118 % of control"}, {"measurement": "T/C", "setting": "dose: 300.0 mg/kg/injection, schedule: Q01DX001 (oral), vehicle: water", "value": "103 % of control and 108 % of control"}, {"measurement": "T/C", "setting": "dose: 300.0 mg/kg/injection, schedule: Q01DX005 (oral), vehicle: water", "value": "184 % of control"}, {"measurement": "T/C", "setting": "dose: 300.0 mg/kg/injection, schedule: Q01DX009 (oral), vehicle: water", "value": "167 % of control"}, {"measurement": "T/C", "setting": "dose: 300.0 mg/kg/injection, schedule: Q07DX004 (oral), vehicle: water", "value": "103 % of control"}, {"measurement": "T/C", "setting": "dose: 300.0 mg/kg/injection, schedule: Q## X006 (oral), vehicle: water", "value": "108 % of control"}, {"measurement": "T/C", "setting": "dose: 300.0 mg/kg/injection, schedule: Q## X008 (oral), vehicle: water", "value": "112 % of control"}, {"measurement": "T/C", "setting": "dose: 300.0 mg/kg/injection, schedule: Q## X024 (oral), vehicle: water", "value": "113 % of control"}, {"measurement": "T/C", "setting": "dose: 400.0 mg/kg/injection, schedule: Q01DX011 (oral), vehicle: water", "value": "179 % of control"}, {"measurement": "T/C", "setting": "dose: 600.0 mg/kg/injection, schedule: Q01DX001 (oral), vehicle: water", "value": "108 % of control and 114 % of control"}, {"measurement": "T/C", "setting": "dose: 600.0 mg/kg/injection, schedule: Q01DX005 (oral), vehicle: water", "value": "153 % of control"}, {"measurement": "T/C", "setting": "dose: 600.0 mg/kg/injection, schedule: Q01DX009 (oral), vehicle: water", "value": "185 % of control"}, {"measurement": "T/C", "setting": "dose: 600.0 mg/kg/injection, schedule: Q07DX004 (oral), vehicle: water", "value": "107 % of control"}, {"measurement": "T/C", "setting": "dose: 600.0 mg/kg/injection, schedule: Q## X003 (oral), vehicle: water", "value": "153 % of control"}, {"measurement": "T/C", "setting": "dose: 600.0 mg/kg/injection, schedule: Q## X006 (oral), vehicle: water", "value": "114 % of control"}, {"measurement": "T/C", "setting": "dose: 600.0 mg/kg/injection, schedule: Q## X024 (oral), vehicle: water", "value": "120 % of control"}, {"measurement": "T/C", "setting": "dose: 660.0 mg/kg/injection, schedule: Q04DX003 (ip), vehicle: carboxymethylcellulose (CMC)", "value": "214 % of control"}, {"measurement": "T/C", "setting": "dose: 800.0 mg/kg/injection, schedule: Q01DX011 (oral), vehicle: water", "value": "121 % of control"}, {"measurement": "T/C", "setting": "dose: 1000.0 mg/kg/injection, schedule: Q01DX001 (ip), vehicle: saline", "value": "164 % of control"}, {"measurement": "T/C", "setting": "dose: 1099.0 mg/kg/injection, schedule: Q01DX001 (ip), vehicle: carboxymethylcellulose (CMC)", "value": "160 % of control"}, {"measurement": "T/C", "setting": "dose: 1099.0 mg/kg/injection, schedule: Q04DX003 (ip), vehicle: carboxymethylcellulose (CMC)", "value": "244 % of control"}, {"measurement": "T/C", "setting": "dose: 1200.0 mg/kg/injection, schedule: Q01DX001 (oral), vehicle: water", "value": "115 % of control and 121 % of control"}, {"measurement": "T/C", "setting": "dose: 1200.0 mg/kg/injection, schedule: Q01DX005 (oral), vehicle: water", "value": "153 % of control and 180 % of control"}, {"measurement": "T/C", "setting": "dose: 1200.0 mg/kg/injection, schedule: Q01DX015 (oral), vehicle: carboxymethylcellulose (CMC)", "value": "100 % of control"}, {"measurement": "T/C", "setting": "dose: 1200.0 mg/kg/injection, schedule: Q07DX004 (oral), vehicle: water", "value": "119 % of control"}, {"measurement": "T/C", "setting": "dose: 1200.0 mg/kg/injection, schedule: Q## X003 (oral), vehicle: water", "value": "185 % of control"}, {"measurement": "T/C", "setting": "dose: 1832.0 mg/kg/injection, schedule: Q01DX001 (ip), vehicle: carboxymethylcellulose (CMC)", "value": "156 % of control"}, {"measurement": "T/C", "setting": "dose: 1832.0 mg/kg/injection, schedule: Q04DX003 (ip), vehicle: carboxymethylcellulose (CMC)", "value": "228 % of control"}, {"measurement": "T/C", "setting": "dose: 2400.0 mg/kg/injection, schedule: Q01DX001 (oral), vehicle: water", "value": "109 % of control"}, {"measurement": "T/C", "setting": "dose: 2400.0 mg/kg/injection, schedule: Q07DX004 (oral), vehicle: water", "value": "123 % of control"}, {"measurement": "T/C", "setting": "dose: 2400.0 mg/kg/injection, schedule: Q## X003 (oral), vehicle: water", "value": "189 % of control"}, {"measurement": "T/C", "setting": "dose: 2400.0 mg/kg/injection, schedule: Q## X006 (oral), vehicle: water", "value": "181 % of control"}]}
{"smiles": "CCCC(C)C(C)CC", "note": "(stereo unspecified)", "values": [{"measurement": "T/C", "setting": "dose: 25.0 mg/kg/injection, schedule: Q01DX001 (ip), vehicle: saline sonified", "value": "107 % of control"}, {"measurement": "T/C", "setting": "dose: 50.0 mg/kg/injection, schedule: Q01DX001 (ip), vehicle: saline sonified", "value": "98 % of control"}, {"measurement": "T/C", "setting": "dose: 100.0 mg/kg/injection, schedule: Q01DX001 (ip), vehicle: saline sonified", "value": "93 % of control"}]}
